Assay [1] deals with K1 strain, a drug resistant strain of Plasmodium falciparum. Nature of the assay: In vitro antimalarial assay (p-LDH, Malstat), K1 strain. The following applies: P. falciparum K1 (drug resistant), 72 h culture, p-LDH readout, read-out: Antimalarial activity (IC50 value), Strain K1. In kind it is cell-based. From the text: (§1) For the evaluation of the antimalarial activity of the compound of the present invention, K1 strain, a drug resistant strain of Plasmodium falciparum, and FCR3 strain, a drug sensitive strain thereof, which were generous gift from Professor Kiyoshi Kita of the Graduate School of Medicine and Faculty of Medicine, the University of Tokyo, were used to measure the in vitro antimalarial activity of the compound against those Plasmodium species according to the method established by Otoguro et al. (Otoguro, K., Kohana, A., Manabe, C., Ishiyama, A., Ui, H., Shiomi, K., Yamada, H. & Omura, S.: Potent antimalarial activity of polyether antibiotic, X-206. J. Antibiot., 54: 658-663, (2001)).
(§2) The parasites were grown based on a slightly modified method from the original method reported by Trager and Jensen (Trager, W. and Jensen, J.: Human malaria parasites in continuous culture, Science, 193: 673-677, (1976)), and those which were maintained and sub-cultured by the method were used. More specifically, in a culture dish, erythrocytes infected with the protozoa, which had been sub-cultured using a RPMI 1640 medium to which 10% human plasma had been added and fresh human erythrocytes, were diluted (hematocrit value: 2 to 5%, parasitaemia: 0.25 to 1%), and were cultured at 37° C. in a mixed gas of 3% O2-4% CO2-93% N2, and continuously cultured while changing the medium and adding fresh erythrocytes at 2- or 3-day intervals.
(§3) A drug susceptibility test was performed by modifying the method established by Desjardins et al. (Desjardins, R. E., Canfield, C. J., Haynes, D. E. and Chulay, J. D.: Quantitative assessment of antimalarial activity in vitro by a semiautomated microdilution technique. Antimicrob. Agents Chemother., 16: 710-718 (1979)). More specifically, 190 μL of a suspension of protozoa which had been precultured (hematocrit value: 2%, parasitaemia: 0.5 or 1%) and 10 μL of a solution of a test compound (5% DMSO solution) serially diluted so that the final concentration was 12.5 to 0.0001 μM were put in each well of a 96-well plate, and after mixing, the same was cultured for 72 hours in the above mixed gas.
(§4) For the measurement of the growth of protozoa, the method established by Makler (Makler, M. T., Rise, J. M., Williams, J. A., Bancroft, J. E., Piper, R. C., Gibbins, B. L. and Hinrichs, D. J.: Parasite lactate dehydrogenase as an Assay for Plasmodium falciparum drug sensitivity, Am. J. Med. Hyg., 48: 739-741 (1993)) was modified to colorimetrically determine parasite lactate dehydrogenase (p-LDH) using Malstat reagent (Flow Inc., USA).
(§5) More specifically, 72 hours after the culture, the 96-well plate was directly frozen at −20° C. for 18 hours and melted at 37° C. to hemolyze the protozoan-infected erythrocytes and destroy the protozoa to prepare a crude enzyme solution. 100 μL of Malstat reagent and 20 μL of the crude enzyme solution were added to and mixed in each well of another 96-well plate, and after reacting for 15 minutes at room temperature, 20 μL of a nitroblue tetrazolium 2 mg/mL phenazine ethosulfate 0.1 mg/mL=1:1 solution was added to the respective wells, and reaction was performed in dark conditions at room temperature for 2 hours.
(§6) The absorbance of the blue formazan product formed by the reaction was measured at a measurement wavelength of 655 nm by using a microplate reader (Labsystems, Finland) to colorimetrically determine the growth of the protozoa. The 50% growth inhibitory concentration for the protozoa of the compound (IC50 value) was determined based on the concentration-response curve of the compound.

In assay [2] the test system is FCR3 strain, a drug sensitive strain of Plasmodium falciparum. The assay is described as follows: In vitro antimalarial assay (p-LDH, Malstat), FCR3 strain. In kind it is cell-based. Particulars: P. falciparum FCR3 (drug sensitive), 72 h culture, p-LDH readout, read-out: Antimalarial activity (IC50 value), Strain FCR3.
Excerpt: as §1, §2, §3, §4, §5, §6

Among the data in patent publication US10538521B2, “Pyrimidine derivative having antimalarial activity” (CARNA BIOSCIENCES, INC., priority 2016, dated 2020) are IC50 values, retold here.

Regarding `FC(F)(F)c1ccnc(Nc2nc(Nc3ccn4ccnc4c3)cc(N3CCOCC3)n2)c1` [Example 47, N4-(imidazo[1,2-a]pyridin-7-yl)-6-morpholino-N2-(4-(trifluoromethyl)pyridin-2-yl) pyrimidine-2,4-diamine], the figures for the IC50 in assay [1] and in assay [2] were 100 to 1000 nM and under 100 nM, respectively.
As to `COc1ccnc(Nc2nc(Nc3ccn4ccnc4c3)cc(N3CCOCC3)n2)c1` [Example 48, N4-(imidazo[1,2-a]pyridin-7-yl)-N2-(4-methoxypyridin-2-yl)-6-morpholinopyrimidine-2,4-diamine], the IC50 in assay [1] and in assay [2] was under 100 nM each time.
For `O=[N+]([O-])c1ccnc(Nc2nc(Nc3ccn4ccnc4c3)cc(N3CCOCC3)n2)c1` [Example 49, N4-(imidazo[1,2-a]pyridin-7-yl)-6-morpholino-N2-(4-nitropyridin-2-yl)pyrimidine-2,4-diamine], the concentration for half-maximal inhibition (IC50) was 1000 to 10000 nM in assay [1] and 100 to 1000 nM in assay [2].
`Cc1ccnc(Nc2nc(N)cc(Nc3ccn4ccnc4c3)n2)c1` [Example 50, N4-(imidazo[1,2-a]pyridin-7-yl)-N2-(4-methylpyridin-2-yl) pyrimidine-2,4,6-triamine]: the IC50 in assay [1] and in assay [2] was under 100 nM throughout.
Turning to `CCOc1ccc(Nc2nc(Nc3ccn4ccnc4c3)cc(N3CCCCC3)n2)cn1` [Example 51, N2-(6-ethoxypyridin-3-yl)-N4-(imidazo[1,2-a]pyridin-7-yl)-6-(piperidin-1-yl)pyrimidine-2,4-diamine], the IC50 in assay [1] is 1000 to 10000 nM; in assay [2], 100 to 1000 nM.
Consider `Cc1nc(Nc2nc(Nc3ccn4ccnc4c3)cc(N3CCOCC3)n2)cc(C2CC2)c1F` [Example 53, N2-(4-Cyclopropyl-5-fluoro-6-methylpyridin-2-yl)-N4-(imidazo [1,2-a]pyridin-7-yl)-6-morpholinopyrimidine-2,4-diamine], for which the IC50 in assay [1] and in assay [2] was 100 to 1000 nM in each case.
For the compound `Cc1cccc(Nc2nc(N)cc(Nc3ccn4ccnc4c3)n2)n1` [Example 54, N4-(Imidazo[1,2-a]pyridin-7-yl)-N2-(6-methylpyridin-2-yl) pyrimidine-2,4,6-triamine], the half-inhibitory concentration (IC50) in assay [1] and in assay [2] was under 100 nM in each case.
On to `CC(C)Oc1ccc(Nc2nc(Nc3ccn4ccnc4c3)cc(N3CCCCC3)n2)cn1` [Example 55, N4-(Imidazo[1,2-a]pyridin-7-yl)-N2-(6-isopropoxypyridin-3-yl)-6-(piperidin-1-yl) pyrimidine-2,4-diamine], for which the IC50 in assay [1] was 1000 to 10000 nM; in assay [2], 100 to 1000 nM.
Take `CCOc1cc(Nc2ccn3ccnc3c2)nc(Nc2ccc(OC(C)C)nc2)n1` [Example 57, 6-Ethoxy-N4-(Imidazo[1,2-a]pyridin-7-yl)-N2-(6-isopropoxypyridin-3-yl)pyrimidine-2,4-diamine]: the IC50 lay within 1000 to 10000 nM in assay [1] and 100 to 1000 nM in assay [2].
For `Cc1cc(C)nc(Nc2nc(N)cc(Nc3ccn4ccnc4c3)n2)c1` [Example 58, N2-(4,6-dimethylpyridin-2-yl)-N4-(imidazo[1,2-a]pyridin-7-yl)pyrimidine-2,4,6-triamine], the half-inhibitory concentration (IC50) in assay [1] and in assay [2] was under 100 nM each time.
As for `Cc1ccc(Nc2nc(Nc3ccn4ccnc4c3)cc(N3CCOCC3)n2)cn1` [Example 60, N4-(imidazo[1,2-a]pyridin-7-yl)-N2-(6-methylpyridin-3-yl)-6-morpholinopyrimidine-2,4-diamine], the half-inhibitory concentration (IC50) in assay [1] and in assay [2] was under 100 nM in each case.
Take `CN(C)CCOc1ccc(Nc2nc(Nc3ccn4ccnc4c3)cc(N3CCOCC3)n2)cn1` [Example 61, N2-(6-(2-(dimethylamino)ethoxy)pyridin-3-yl)-N4-(imidazo[1,2-a]pyridin-7-yl)-6-morpholino-pyrimidine-2,4-diamine]: the IC50 in assay [1] lay in the range of 1000 to 10000 nM; in assay [2], 100 to 1000 nM.
On to `CCCCOc1ccc(Nc2nc(Nc3ccn4ccnc4c3)cc(N3CCOCC3)n2)cn1` [Example 62, N2-(6-butoxypyridin-3-yl)-N4-(imidazo[1,2-a]pyridin-7-yl)-6-morpholinopyrimidine-2,4-diamine], for which the concentration for half-maximal inhibition (IC50) in assay [1] and in assay [2] was 100 to 1000 nM in each case.
Consider `CC(C)(C)Oc1ccc(Nc2nc(Nc3ccn4ccnc4c3)cc(N3CCOCC3)n2)cn1` [Example 63, N2-(6-(tert-butoxy)pyridin-3-yl)-N4-(imidazo[1,2-a]pyridin-7-yl)-6-morpholinopyrimidine-2,4-diamine], for which the IC50 in assay [1] and in assay [2] was 100 to 1000 nM each time.
For the compound `CC(C)COc1ccc(Nc2nc(Nc3ccn4ccnc4c3)cc(N3CCOCC3)n2)cn1` [Example 64, N4-(imidazo[1,2-a]pyridin-7-yl)-N2-(6-isobutoxypyridin-3-yl)-6-morpholinopyrimidine-2,4-diamine], the IC50 in assay [1] was 100 to 1000 nM; in assay [2], under 100 nM.
The like results for `CC(C)(C)COc1ccc(Nc2nc(Nc3ccn4ccnc4c3)cc(N3CCOCC3)n2)cn1` [Example 65, N4-(imidazo[1,2-a]pyridin-7-yl)-6-morpholino-N2-(6-(neopentyloxy)pyridin-3-yl)pyrimidine-2,4-diamine] were, in that order, 100 to 1000 nM and 100 to 1000 nM.
The like results for `COCCOc1ccc(Nc2nc(Nc3ccn4ccnc4c3)cc(N3CCOCC3)n2)cn1` [Example 66, N4-(imidazo[1,2-a]pyridin-7-yl)-N2-(6-(2-methoxyethoxy)-pyridin-3-yl)-6-morpholino-pyrimidine-2,4-diamine] were, in that order, 100 to 1000 nM and 100 to 1000 nM.
The like results for `CC(C)(C)c1ccnc(Nc2nc(Nc3ccn4ccnc4c3)cc(N3CCOCC3)n2)c1` [Example 67, N2-(4-(tert-butyl)pyridin-2-yl)-N4-(imidazo[1,2-a]pyridin-7-yl)-6-morpholinopyrimidine-2,4-diamine] were, in that order, 100 to 1000 nM and 100 to 1000 nM.
Take `CCCOc1ccc(Nc2nc(Nc3ccn4ccnc4c3)cc(N3CCOCC3)n2)cn1` [Example 69, N4-(imidazo[1,2-a]pyridin-7-yl)-6-morpholino-N2-(6-propoxy-pyridin-3-yl)pyrimidine-2,4-diamine]: the half-inhibitory concentration (IC50) in assay [1] is 100 to 1000 nM; in assay [2], under 100 nM.
Turning to `CC(C)c1ccnc(Nc2nc(Nc3ccn4ccnc4c3)cc(N3CCOCC3)n2)c1` [Example 70, N4-(imidazo[1,2-a]pyridin-7-yl)-N2-(4-isopropylpyridin-2-yl)-6-morpholinopyrimidine-2,4-diamine], the concentration for half-maximal inhibition (IC50) in assay [1] and in assay [2] was under 100 nM throughout.
With `CCc1ccnc(Nc2nc(Nc3ccn4ccnc4c3)cc(N3CCCCC3)n2)c1` [Example 71, N2-(4-ethylpyridin-2-yl)-N4-(imidazo[1,2-a]pyridin-7-yl)-6-(piperidin-1-yl)pyrimidine-2,4-diamine], the IC50 in assay [1] and in assay [2] was under 100 nM in each case.
Take `CC(C)(C)c1ccnc(Nc2nc(Nc3ccn4ccnc4c3)cc(N3CCCCC3)n2)c1` [Example 72, N2-(4-(tert-butyl)pyridin-2-yl)-N4-(imidazo[1,2-a]pyridin-7-yl)-6-(piperidin-1-yl)pyrimidine-2,4-diamine]: the values for the half-maximal inhibitory concentration (IC50) in assay [1] and in assay [2] were 1000 to 10000 nM and 100 to 1000 nM, respectively.
The like results for `CC(C)c1ccnc(Nc2nc(Nc3ccn4ccnc4c3)cc(N3CCCCC3)n2)c1` [Example 73, N4-(imidazo[1,2-a]pyridin-7-yl)-N2-(4-isopropylpyridin-2-yl)-6-(piperidin-1-yl)pyrimidine-2,4-diamine] were, in that order, 100 to 1000 nM and 100 to 1000 nM.
Consider `CCCc1ccnc(Nc2nc(Nc3ccn4ccnc4c3)cc(N3CCOCC3)n2)c1` [Example 74, N4-(imidazo[1,2-a]pyridin-7-yl)-6-morpholino-N2-(4-propylpyridin-2-yl)pyrimidine-2,4-diamine], for which the IC50 is 100 to 1000 nM in assay [1] and under 100 nM in assay [2].
